Among the data in PubChem BioAssay (NCI) are TGI and GI50 values, retold here.

Among the test systems are SK-MEL-5 melanoma; MDA-MB-231 breast; MOLT-4 leukemia; COLO 205 colon; RPMI-8226 leukemia; 786-0 renal; ACHN renal; OVCAR-5 ovarian; HOP-62 NSCLC; IGROV1 ovarian; A498 renal; U251 CNS; NCI-H226 lung; LOX IMVI melanoma; CAKI-1 renal; HOP-92 NSCLC; MALME-3M melanoma.
What all share (assay): inhibition of tumour cell growth, NCI panel, 48 h

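Step 1: Grow cells in 96-well plates. Step 2: Expose to compound for 48 hours at 5 concentrations. Step 3: Interpolate endpoints linearly; if unreached, use highest concentration. Here, GI50 denotes the concentration required for 50% inhibition of growth. TGI is the concentration that stops growth completely.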

In the case of `Cc1ccc(S(=O)(=O)N2CCCSCCSCCCN(S(=O)(=O)c3ccc(C)cc3)CC2)cc1`, the TGI in the experiment with SK-MEL-5 melanoma, in the experiment on MDA-MB-231 breast, in the experiment on MOLT-4 leukemia, in the experiment with COLO 205 colon, with RPMI-8226 leukemia and with 786-0 renal was more than 100 µM each time. Also, the TGI in the experiment on ACHN renal, in the experiment with OVCAR-5 ovarian, in the experiment on HOP-62 NSCLC, in the experiment with IGROV1 ovarian, in the experiment with A498 renal and in the experiment with U251 CNS was more than 100 µM in each case. This compound came in with a TGI in the experiment with NCI-H226 lung of more than 100 µM.

With `N#C/C(c1nc2ccccc2[nH]1)=c1\s/c(=C(/N)O)c(=N)n1-c1ccccc1`, the TGI in the experiment on SK-MEL-5 melanoma, in the experiment with MOLT-4 leukemia, in the experiment on COLO 205 colon, in the experiment on LOX IMVI melanoma, with 786-0 renal and in the experiment on ACHN renal was more than 100 µM in each case. Also, the TGI in the experiment on CAKI-1 renal, in the experiment with OVCAR-5 ovarian, with HOP-92 NSCLC, in the experiment with HOP-62 NSCLC, in the experiment with MALME-3M melanoma and in the experiment on IGROV1 ovarian was more than 100 µM throughout. Further, the TGI in the experiment with A498 renal, in the experiment with U251 CNS and in the experiment with NCI-H226 lung was more than 100 µM in each case.

For `COc1ccc2c3c([nH]c(=O)c2c1C(=O)O)-c1ccccc1CC3`, the TGI with SK-MEL-5 melanoma, with MOLT-4 leukemia, with COLO 205 colon, in the experiment with LOX IMVI melanoma, with RPMI-8226 leukemia and in the experiment with 786-0 renal was more than 100 µM throughout. Besides, the TGI with ACHN renal, with CAKI-1 renal, in the experiment on OVCAR-5 ovarian, in the experiment on HOP-92 NSCLC, in the experiment with HOP-62 NSCLC and in the experiment with MALME-3M melanoma was more than 100 µM throughout. The TGI in the experiment on IGROV1 ovarian, in the experiment on A498 renal, in the experiment on U251 CNS and with NCI-H226 lung was more than 100 µM each time.

In the case of `O=c1[nH]nc(-c2ccccc2)n1/N=C/c1ccco1`, the TGI in the experiment on SK-MEL-5 melanoma, in the experiment on MOLT-4 leukemia, in the experiment on COLO 205 colon, with LOX IMVI melanoma, with 786-0 renal and in the experiment with ACHN renal was more than 100 µM throughout. Further, the TGI in the experiment with CAKI-1 renal, in the experiment with OVCAR-5 ovarian, in the experiment with HOP-92 NSCLC, in the experiment on HOP-62 NSCLC, in the experiment on MALME-3M melanoma and with IGROV1 ovarian was more than 100 µM throughout. The TGI in the experiment on A498 renal and in the experiment on U251 CNS was more than 100 µM in each case.

`O=C(Nn1c(-c2cccs2)nc2ccc(I)cc2c1=O)c1ccccc1`: the TGI in the experiment with SK-MEL-5 melanoma was 76.8 µM; with MOLT-4 leukemia, more than 100 µM; in the experiment on COLO 205 colon it was more than 100 µM; in the experiment on LOX IMVI melanoma it was 46.9 µM; in the experiment with RPMI-8226 leukemia it was 58.1 µM; in the experiment with 786-0 renal, more than 100 µM. The TGI in the experiment on ACHN renal was more than 100 µM; with CAKI-1 renal it was 51 µM; with OVCAR-5 ovarian it was more than 100 µM; in the experiment with HOP-92 NSCLC it was 51.7 µM; in the experiment with HOP-62 NSCLC, more than 100 µM; with IGROV1 ovarian, 82.6 µM. Further, the TGI in the experiment with U251 CNS was 73.1 µM; in the experiment on NCI-H226 lung, more than 100 µM. For the same compound, the GI50 in the experiment on RPMI-8226 leukemia is 22.8 µM.

On to `CC(=O)N1c2ccccc2C2=NN(C)C(=N)SC21` (configuration not stated), for which the TGI with MDA-MB-231 breast, with MOLT-4 leukemia, in the experiment on COLO 205 colon, with LOX IMVI melanoma, with RPMI-8226 leukemia and with 786-0 renal was more than 100 µM throughout. Further, the TGI in the experiment with ACHN renal, in the experiment with OVCAR-5 ovarian, in the experiment on HOP-62 NSCLC, in the experiment with MALME-3M melanoma, with A498 renal and in the experiment on U251 CNS was more than 100 µM throughout. The same compound displayed a TGI in the experiment on NCI-H226 lung of more than 100 µM.

With `CC(C)(C)C1CCC2c3c([nH]c4ncccc34)C3C(=O)N(c4ccccc4)C(=O)C3C2C1` (configuration not stated), the TGI in the experiment on SK-MEL-5 melanoma, with MOLT-4 leukemia, with COLO 205 colon, in the experiment with LOX IMVI melanoma, in the experiment with RPMI-8226 leukemia and with 786-0 renal was more than 100 µM in each case. The TGI with ACHN renal, with CAKI-1 renal, with OVCAR-5 ovarian, in the experiment on HOP-92 NSCLC, in the experiment with HOP-62 NSCLC and with MALME-3M melanoma was more than 100 µM throughout. Besides, the TGI with IGROV1 ovarian, in the experiment on U251 CNS and with NCI-H226 lung was more than 100 µM each time.

Regarding `Cn1nc2ccc([N+](=O)[O-])cc2[n+]1[O-]`, the TGI with SK-MEL-5 melanoma, in the experiment with MDA-MB-231 breast, in the experiment with MOLT-4 leukemia, in the experiment with COLO 205 colon, in the experiment with 786-0 renal and in the experiment with ACHN renal was more than 100 µM each time. In addition, the TGI with CAKI-1 renal, in the experiment with OVCAR-5 ovarian, with HOP-62 NSCLC, in the experiment with MALME-3M melanoma, with IGROV1 ovarian and with A498 renal was more than 100 µM throughout. In addition, the TGI with U251 CNS and in the experiment with NCI-H226 lung was more than 100 µM throughout.

Regarding `O=C(c1cccc2ccccc12)C1S(=O)(=O)OCCOS1(=O)=O`, the TGI in the experiment on SK-MEL-5 melanoma, in the experiment on MDA-MB-231 breast, with MOLT-4 leukemia, with COLO 205 colon, in the experiment on RPMI-8226 leukemia and with 786-0 renal was more than 100 µM throughout. For the same compound, the TGI in the experiment with ACHN renal, in the experiment on CAKI-1 renal, in the experiment with OVCAR-5 ovarian, with HOP-62 NSCLC, in the experiment on MALME-3M melanoma and in the experiment with U251 CNS was more than 100 µM each time.

`CNCCN[C@@H]1c2cc3c(cc2[C@@H](c2cc(OC)c(O)c(OC)c2)[C@H]2C(=O)OC[C@@H]21)OCO3`: the TGI is 1.16 µM in the experiment on SK-MEL-5 melanoma; 2.71 µM with MDA-MB-231 breast; 0.0587 µM with MOLT-4 leukemia; 12 µM in the experiment with COLO 205 colon; 1.35 µM in the experiment on LOX IMVI melanoma; 0.634 µM with RPMI-8226 leukemia. Also, the TGI worked out at 0.487 µM with 786-0 renal; 1.04 µM in the experiment with ACHN renal; 6.86 µM in the experiment on CAKI-1 renal; 4.63 µM with OVCAR-5 ovarian; 0.678 µM in the experiment on HOP-62 NSCLC; 1.83 µM in the experiment with MALME-3M melanoma. Further, the TGI came to 2.63 µM in the experiment on IGROV1 ovarian, 2.13 µM in the experiment on U251 CNS and 0.686 µM in the experiment with NCI-H226 lung.
